In patent publication US11980188B2, “Spiro cyclohexanedione derivates as herbicides” (SYNGENTA PARTICIPATIONS AG, priority 2018, dated 2024):

Assays:
LOLPE = assay: Post-emergence comparison with comparator C1 at indicated application rates; assay type: in vivo, Lolium perenne
Experimental: (§1) Seeds of a variety of test species are sown in standard soil in pots (Lolium perenne (LOLPE), Setaria faberi (SETFA), Alopecurus myosuroides (ALOMY), Echinochloa crus-galli (ECHCG), Avena fatua (AVEFA)). After cultivation for one day (pre-emergence) or after 8 days cultivation (post-emergence) under controlled conditions in a glasshouse (at 24/16° C., day/night; 14 hours light; 65% humidity), the plants are sprayed with an aqueous spray solution derived from the formulation of the technical active ingredient in acetone/water (50:50) solution containing 0.5% Tween 20 (polyoxyethelyene sorbitan monolaurate, CAS RN 9005-64-5). Compounds are applied at […]. The test plants are then grown in a glasshouse under controlled conditions in a glasshouse (at 24/16° C., day/night; 14 hours light; 65% humidity) and watered twice daily. After 13 days for pre and post-emergence, the test is evaluated for the percentage damage caused to the plant. The biological activities are shown in the following table on a five point scale (5=80-100%; 4=60-79%; 3=40-59%; 2=20-39%; 1=0-19%).
(§2) Using procedures outlines above, weed species ALOMY, AVEFA & LOLPE are treated post-emergence with compound A4 of the present invention or comparator compound C1 (Compound T-26 from WO2008/110308) at the application rates indicated. The test is evaluated for the percentage damage caused to the plant.

[1] = system: Echinochloa crus-galli (ECHCG); assay: Glasshouse herbicide test, pre- and post-emergence, percentage damage; assay type: in vivo; conditions: 250 g/h, evaluated after 13 days, percentage damage on five point scale; for ECHCG PRE: pre-emergence; for ECHCG POST: post-emergence
Procedure, shortened: (§3)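 Spray solution: acetone/water (50:50), 0.5% Tween 20, applied at 250 g/h. Timing: 1 d (pre-emergence) or 8 d (post-emergence) after sowing. Readout: % plant damage at 13 d, banded 1–5.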

[2] = system: Alopecurus myosuroides (ALOMY); assay: as above; assay type: in vivo; conditions: 250 g/h, evaluated after 13 days, percentage damage on five point scale; for ALOMY POST: post-emergence; for ALOMY PRE: pre-emergence
Procedure, shortened: as §3

Lolium perenne (LOLPE) = assay: as above; assay type: in vivo; conditions: 250 g/h, evaluated after 13 days, percentage damage on five point scale; for LOLPE POST: post-emergence; for LOLPE PRE: pre-emergence
Procedure, shortened: as §3

Avena fatua (AVEFA) = assay: as above; assay type: in vivo; conditions: 250 g/h, evaluated after 13 days, percentage damage on five point scale; for AVEFA POST: post-emergence; for AVEFA PRE: pre-emergence
Procedure, shortened: as §3

Setaria faberi (SETFA) = assay: as above; assay type: in vivo; conditions: 250 g/h, evaluated after 13 days, percentage damage on five point scale; for SETFA POST: post-emergence; for SETFA PRE: pre-emergence
Procedure, shortened: as §3

[3] = system: weed species ALOMY, AVEFA & LOLPE; assay: Post-emergence comparison with comparator C1, overall conclusion; assay type: in vivo; conditions: 63 and 16 g/ha, Table B2
Experimental: as §1, §2

AVEFA = assay: Post-emergence comparison with comparator C1 at indicated application rates; assay type: in vivo, Avena fatua
Experimental: as §1, §2

ALOMY = assay: as above; assay type: in vivo, Alopecurus myosuroides
Experimental: as §1, §2

CC(=O)N1CCC2(CC1)CC(=O)C(c1c(C)cc(-c3ncc(F)cn3)cc1C)C(=O)C2 [Compound A13, 3-acetyl-9-[4-(5-fluoropyrimidin-2-yl)-2,6-dimethyl-phenyl]-3-azaspiro[5.5]undecane-8,10-dione]
100%: AVEFA percentage damage (AVEFA; rate 63 g/ha) | ALOMY percentage damage (ALOMY; rate 63 g/ha)
5 (5=80-100%): ECHCG PRE [1] | ALOMY POST [2] | ALOMY PRE [2] | LOLPE POST (Lolium perenne (LOLPE)) | LOLPE PRE (Lolium perenne (LOLPE)) | AVEFA POST (Avena fatua (AVEFA)) | AVEFA PRE (Avena fatua (AVEFA)) | SETFA POST (Setaria faberi (SETFA)) | SETFA PRE (Setaria faberi (SETFA))
improved weed control: weed control vis-à-vis prior art compound C1 [3]
90%: LOLPE percentage damage (LOLPE; rate 63 g/ha) | AVEFA percentage damage (AVEFA; rate 16 g/ha) | ALOMY percentage damage (ALOMY; rate 16 g/ha)
70%: LOLPE percentage damage (LOLPE; rate 16 g/ha)

Cc1cc(C)c(C2C(=O)CC3(CCOCC3)CC2=O)c(C)c1 [Compound C1, reference compound]
30%: LOLPE percentage damage (LOLPE; rate 16 g/ha)
70%: AVEFA percentage damage (AVEFA; rate 63 g/ha)
20%: AVEFA percentage damage (AVEFA; rate 16 g/ha) | ALOMY percentage damage (ALOMY; rate 16 g/ha)
60%: LOLPE percentage damage (LOLPE; rate 63 g/ha)
80%: ALOMY percentage damage (ALOMY; rate 63 g/ha)

COc1cc(-c2ccc(F)cc2)cc(OC)c1C1C(=O)CC2(CCN(OC)CC2)CC1=O [Compound A7]
100%: LOLPE percentage damage (LOLPE; rate 63 g/ha) | AVEFA percentage damage (AVEFA; rate 16 g/ha) | AVEFA percentage damage (AVEFA; rate 63 g/ha) | ALOMY percentage damage (ALOMY; rate 63 g/ha)
improved weed control: weed control vis-à-vis prior art compound C1 [3]
5 (5=80-100%): ECHCG POST [1] | ECHCG PRE [1] | ALOMY POST [2] | ALOMY PRE [2] | LOLPE POST (Lolium perenne (LOLPE)) | LOLPE PRE (Lolium perenne (LOLPE)) | AVEFA POST (Avena fatua (AVEFA)) | AVEFA PRE (Avena fatua (AVEFA)) | SETFA POST (Setaria faberi (SETFA)) | SETFA PRE (Setaria faberi (SETFA))
80%: ALOMY percentage damage (ALOMY; rate 16 g/ha)
90%: LOLPE percentage damage (LOLPE; rate 16 g/ha)

Cc1cc(-c2ccc(F)cc2)cc(C)c1C1C(=O)CC2(CCN(C(=O)C(F)F)CC2)CC1=O [Compound A60]
5 (5=80-100%): ECHCG POST [1] | ECHCG PRE [1] | ALOMY PRE [2] | LOLPE POST (Lolium perenne (LOLPE)) | LOLPE PRE (Lolium perenne (LOLPE)) | AVEFA POST (Avena fatua (AVEFA)) | AVEFA PRE (Avena fatua (AVEFA)) | SETFA POST (Setaria faberi (SETFA)) | SETFA PRE (Setaria faberi (SETFA))

CON1CCC2(CC1)CC(=O)C(c1c(C)cc(C)cc1C)C(=O)C2 [Compound A4]
improved weed control: weed control vis-à-vis prior art compound C1 [3]
40%: AVEFA percentage damage (AVEFA; rate 16 g/ha) | ALOMY percentage damage (ALOMY; rate 16 g/ha)
5 (5=80-100%): ECHCG POST [1] | ECHCG PRE [1] | ALOMY POST [2] | ALOMY PRE [2] | LOLPE POST (Lolium perenne (LOLPE)) | LOLPE PRE (Lolium perenne (LOLPE)) | AVEFA POST (Avena fatua (AVEFA)) | AVEFA PRE (Avena fatua (AVEFA)) | SETFA POST (Setaria faberi (SETFA)) | SETFA PRE (Setaria faberi (SETFA))
70%: LOLPE percentage damage (LOLPE; rate 16 g/ha)
90%: LOLPE percentage damage (LOLPE; rate 63 g/ha) | AVEFA percentage damage (AVEFA; rate 63 g/ha) | ALOMY percentage damage (ALOMY; rate 63 g/ha)

CC(=O)N1CCC2(CC1)CC(=O)C(c1c(C)cc(-c3ncc(C#N)cn3)cc1C)C(=O)C2 [Compound A52]
5 (5=80-100%): ECHCG POST [1] | ECHCG PRE [1] | ALOMY POST [2] | ALOMY PRE [2] | LOLPE POST (Lolium perenne (LOLPE)) | LOLPE PRE (Lolium perenne (LOLPE)) | AVEFA POST (Avena fatua (AVEFA)) | AVEFA PRE (Avena fatua (AVEFA)) | SETFA POST (Setaria faberi (SETFA)) | SETFA PRE (Setaria faberi (SETFA))

CON1CCC2(CC1)CC(=O)C(c1c(C)cc(-c3ccc(C#N)cn3)cc1C)C(=O)C2 [Compound A3]
5 (5=80-100%): ECHCG POST [1] | ECHCG PRE [1] | ALOMY POST [2] | ALOMY PRE [2] | LOLPE POST (Lolium perenne (LOLPE)) | LOLPE PRE (Lolium perenne (LOLPE)) | AVEFA POST (Avena fatua (AVEFA)) | AVEFA PRE (Avena fatua (AVEFA)) | SETFA POST (Setaria faberi (SETFA)) | SETFA PRE (Setaria faberi (SETFA))

CC(=O)N1CCC2(CC1)CC(=O)C(c1c(C)cc(-c3ccc(F)cn3)cc1C)C(=O)C2 [Compound A46]
5 (5=80-100%): ECHCG POST [1] | ECHCG PRE [1] | ALOMY POST [2] | ALOMY PRE [2] | LOLPE POST (Lolium perenne (LOLPE)) | LOLPE PRE (Lolium perenne (LOLPE)) | AVEFA POST (Avena fatua (AVEFA)) | AVEFA PRE (Avena fatua (AVEFA)) | SETFA POST (Setaria faberi (SETFA)) | SETFA PRE (Setaria faberi (SETFA))

CC(=O)N1CCC2(CC1)CC(=O)C(c1c(C)cc(-n3cc(F)cn3)cc1C)C(=O)C2 [Compound A47]
4 (4=60-79%): LOLPE PRE (Lolium perenne (LOLPE)) | AVEFA PRE (Avena fatua (AVEFA)) | SETFA PRE (Setaria faberi (SETFA))
2 (2=20-39%): ALOMY PRE [2]
1 (1=0-19%): ECHCG POST [1]
5 (5=80-100%): ALOMY POST [2] | LOLPE POST (Lolium perenne (LOLPE)) | AVEFA POST (Avena fatua (AVEFA)) | SETFA POST (Setaria faberi (SETFA))
3 (3=40-59%): ECHCG PRE [1]

CC(=O)N1CCC2(CC1)CC(=O)C(c1c(C)cc(-c3ncc(Cl)cc3F)cc1C)C(=O)C2 [Compound A50]
5 (5=80-100%): ECHCG POST [1] | ECHCG PRE [1] | ALOMY POST [2] | ALOMY PRE [2] | LOLPE POST (Lolium perenne (LOLPE)) | LOLPE PRE (Lolium perenne (LOLPE)) | AVEFA POST (Avena fatua (AVEFA)) | AVEFA PRE (Avena fatua (AVEFA)) | SETFA POST (Setaria faberi (SETFA)) | SETFA PRE (Setaria faberi (SETFA))

Cc1cc(-c2ccc(C#N)cn2)cc(C)c1C1C(=O)CC2(CCN(C(=O)NC(C)(C)C)CC2)CC1=O [Compound A26]
4 (4=60-79%): AVEFA PRE (Avena fatua (AVEFA))
2 (2=20-39%): AVEFA POST (Avena fatua (AVEFA))
5 (5=80-100%): ECHCG PRE [1] | ALOMY POST [2] | ALOMY PRE [2] | LOLPE POST (Lolium perenne (LOLPE)) | LOLPE PRE (Lolium perenne (LOLPE)) | SETFA POST (Setaria faberi (SETFA)) | SETFA PRE (Setaria faberi (SETFA))

COc1cc(-c2ncc(F)cn2)cc(OC)c1C1C(=O)CC2(CCN(OC)CC2)CC1=O [Compound A8]
5 (5=80-100%): ECHCG POST [1] | ECHCG PRE [1] | ALOMY POST [2] | ALOMY PRE [2] | LOLPE POST (Lolium perenne (LOLPE)) | LOLPE PRE (Lolium perenne (LOLPE)) | AVEFA POST (Avena fatua (AVEFA)) | AVEFA PRE (Avena fatua (AVEFA)) | SETFA POST (Setaria faberi (SETFA)) | SETFA PRE (Setaria faberi (SETFA))
